Results reported in patent US8703765B2, “Cyclic inhibitors of 11β-hydroxysteroid dehydrogenase 1” (Boehringer Ingelheim International GmbH, priority 2009, dated 2014).

Target: T1, 11β-HSD1 (Homo sapiens, UniProt P28845)
T1 construct: detecting cortisol generated from cortisterone by human liver microsomes; from tissue; host or cells: human liver microsomes
Assay: In vitro inhibition of 11β-HSD1, HTRF detection of cortisol generated by human liver microsomes
Assay type: biochemical
Conditions: cortisone 80 nM, NADPH 200 μM, 1 hour at 37° C., pH 6.0
Protocol: In vitro inhibition of 11 β-HSD1 by test compounds was determined with HTRF (Homogeneous Time-Resolved Fluorescence) technology (cisbio international, France) detecting cortisol generated from cortisterone by human liver microsomes. Briefly, compounds were incubated for 1 hour at 37° C. in Tris buffer (20 mM tris, 5 mM EDTA, pH 6.0) containing NADPH (200 μM) and cortisone (80 nM). Cortisol generated in the reaction was then detected with a competitive immunoassay, involving two HTRF conjugates: cortisol linked to XL665 and anti-cortisol antibody labeled with Europium cryptate. The incubation period for detection reaction was typically 2 hours. The amount of cortisol was determined by reading the time-resolved fluorescence of the wells (Ex 320/75 nm; Em 615/8.5 nm and 665/7.5 nm). The ratio of the two emission signals is then calculated (Em665*10000/Em615). […] Each assay also contained a calibration curve with cortisol to transform the fluorescent data into cortisol concentrations. Percent inhibition of each compound was determined relative to the carbenoxolone signal and IC50 curves were generated.
In Table 1 the 11β-HSD 1 inhibitory activities, determined as described above, are compiled.

T1 sequence (P28845 whole entry): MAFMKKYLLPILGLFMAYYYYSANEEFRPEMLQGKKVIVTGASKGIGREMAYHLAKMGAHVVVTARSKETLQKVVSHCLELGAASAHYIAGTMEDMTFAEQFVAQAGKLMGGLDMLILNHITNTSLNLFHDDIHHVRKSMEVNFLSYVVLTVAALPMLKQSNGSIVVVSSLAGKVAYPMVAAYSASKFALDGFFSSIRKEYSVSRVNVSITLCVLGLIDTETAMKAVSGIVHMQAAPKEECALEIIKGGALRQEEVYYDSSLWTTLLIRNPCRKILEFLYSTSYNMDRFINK

SMILES | IC50
CC(C)(O)C[C@@]1(c2ccccc2)CCN([C@H](c2ccc(Br)cc2)C2CC2)C(=O)O1 (racemic) [Example 2, 3-[(4-Bromo-phenyl)-cyclopropyl-methyl]-6-(2-hydroxy-2-methyl-propyl)-6-phenyl-[1,3]oxazinan-2-one] | 0.96 µM
Cn1ccc(-c2ccc([C@H](C3CC3)N3CC[C@@](CC(C)(C)O)(c4ccccc4)OC3=O)cc2)cc1=O (racemic) [Example 4, 3-{Cyclopropyl-[4-(1-methyl-2-oxo-1,2-dihydro-pyridin-4-yl)-phenyl]-methyl}-6-(2-hydroxy-2-methyl-propyl)-6-phenyl-[1,3]oxazinan-2-one] | > 10 µM
CC(C)(O)CC1(c2ccccc2)CCN(C(c2ccc(Br)cc2)C2CC2)C(=O)O1 (stereo not drawn) [Example 1, 3-[(4-Bromo-phenyl)-cyclopropyl-methyl]-6-(2-hydroxy-2-methyl-propyl)-6-phenyl-[1,3]oxazinan-2-one] | 0.065 µM
Cn1ccc(-c2ccc(C(C3CC3)N3CCC(CC(C)(C)O)(c4ccccc4)OC3=O)cc2)cc1=O (stereo not drawn) [Example 3, 3-{Cyclopropyl-[4-(1-methyl-2-oxo-1,2-dihydro-pyridin-4-yl)-phenyl]-methyl}-6-(2-hydroxy-2-methyl-propyl)-6-phenyl-[1,3]oxazinan-2-one] | 0.111 µM
Cn1ccc(-c2ccc([C@@H](C3CC3)N3CC[C@@](CC(C)(C)O)(c4ccccc4)OC3=O)cc2)cc1=O [Example 3b, 3-{(R)-cyclopropyl-[4-(1-methyl-2-oxo-1,2-dihydro-pyridin-4-yl)-phenyl]methyl}-(R)-6-(2-hydroxy-2-methyl-propyl)-6-phenyl-[1,3]oxazinan-2-one] | > 4.5 µM
Cn1cc(-c2ccc(C(C3CC3)N3CCC(CC(C)(C)O)(c4ccccc4)OC3=O)cc2)ccc1=O (stereo not drawn) [Example 5, 3-{Cyclopropyl-[4-(1-methyl-6-oxo-1,6-dihydro-pyridin-3-yl)-phenyl]-methyl}-6-(2-hydroxy-2-methyl-propyl)-6-phenyl-[1,3]oxazinan-2-one] | 0.035 µM
CC(C)(O)C[C@]1(c2ccccc2)CCN([C@H](c2ccc(Br)cc2)C2CC2)C(=O)O1 [Example 6, 3-[(S)-(4-Bromo-phenyl)-cyclopropyl-methyl]-(S)-6-(2-hydroxy-2-methyl-propyl)-6-phenyl-[1,3]oxazinan-2-one] | 0.053 µM
Cn1ccc(-c2ccc([C@H](C3CC3)N3CC[C@](CC(C)(C)O)(c4ccccc4)OC3=O)cc2)cc1=O [Example 7, 3-{(S)-Cyclopropyl-[4-(1-methyl-2-oxo-1,2-dihydro-pyridin-4-yl)-phenyl]-methyl}-(S)-6-(2-hydroxy-2-methyl-propyl)-6-phenyl-[1,3]oxazinan-2-one] | 0.064 µM
Cc1ccc(-c2ccc([C@H](C3CC3)N3CC[C@](CC(C)(C)O)(c4ccccc4)OC3=O)cc2)nn1 [Example 8, 3-{(S)-Cyclopropyl-[4-(6-methyl-pyridazin-3-yl)-phenyl]methyl}-(S)-6-(2-hydroxy-2-methyl-propyl)-6-phenyl-[1,3]oxazinan-2-one] | 0.029 µM
CC(C)(O)C[C@]1(c2ccccc2)CCN([C@H](c2ccc(-c3ccn(C4CC4)c(=O)c3)cc2)C2CC2)C(=O)O1 [Example 9, 3-{(S)-Cyclopropyl-[4-(1-cyclopropyl-2-oxo-1,2-dihydro-pyridin-4-yl)-phenyl]-methyl}-(S)-6-(2-hydroxy-2-methyl-propyl)-6-phenyl-[1,3]oxazinan-2-one] | 0.038 µM
Cn1cc(-c2ccc([C@H](C3CC3)N3CC[C@](CC(C)(C)O)(c4ccccc4)OC3=O)cc2)ccc1=O [Example 10, 3-{(S)-Cyclopropyl-[4-(1-methyl-6-oxo-1,6-dihydro-pyridin-3-yl)-phenyl]-methyl}-(S)-6-(2-hydroxy-2-methyl-propyl)-6-phenyl-[1,3]oxazinan-2-one] | 0.07 µM
Cc1ncc(-c2ccc([C@H](C3CC3)N3CC[C@](CC(C)(C)O)(c4ccccc4)OC3=O)cc2)cn1 [Example 11, 3-{(S)-Cyclopropyl-[4-(2-methyl-pyrimidin-5-yl)-phenyl]methyl}-(S)-6-(2-hydroxy-2-methyl-propyl)-6-phenyl-[1,3]oxazinan-2-one] | 0.054 µM
